# Data as given in patent publication US12441691B2 (Cytokinetics, Inc., priority 2020, dated 2025).
# Test system: rabbit skeletal myofibrils (fast skeletal myofibrils)
# Assay: Activation of fast skeletal myofibrils (PUMA assay, AC1.4)
# Format: biochemical
# Details: calcium at pCa25, AC1.4 = concentration at which the compound increased the enzymatic activity
# Method in brief: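 In 12 mM PIPES pH 6.8 with 2 mM MgCl2 and 1 mM DTT, Triton-washed rabbit skeletal myofibrils were run at the pCa25 calcium level. Myosin-made ADP was recycled through a PK/LDH coupled system; NADH loss read at 340 nm.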
row,Structure (SMILES),AC1.4
1,"CC[C@H](C)[C@H]1C(=O)Nc2ccccc2CN1C(=O)Nc1cncc(C(N)=O)c1 [Compound 298, (S)-3-((S)-sec-butyl)-N-(5-carbamoylpyridin-3-yl)-2-oxo-1,2,3,5-tetrahydro-4H-benzo[e][1,4]diazepine-4-carboxamide]",0.07 µM
2,"CC[C@H](C)[C@H]1C(=O)Nc2ccccc2CN1C(=O)Nc1ccn(CCOC)n1 [Compound 299, (S)-3-((S)-sec-butyl)-N-(1-(2-methoxyethyl)-1H-pyrazol-3-yl)-2-oxo-1,2,3,5-tetrahydro-4H-benzo[e][1,4]diazepine-4-carboxamide]",0.18 µM
3,"CC[C@H](C)[C@H]1C(=O)Nc2ccccc2CN1C(=O)N1CC(F)(F)C1 [Compound 300, (S)-3-((S)-sec-butyl)-4-(3,3-difluoroazetidine-1-carbonyl)-1,3,4,5-tetrahydro-2H-benzo[e][1,4]diazepin-2-one]",0.42 µM
4,"CC[C@H](C)[C@H]1C(=O)Nc2ccccc2CN1C(=O)NC1CCN(CCO)CC1 [Compound 301, (S)-3-((S)-sec-butyl)-N-(1-(2-hydroxyethyl)piperidin-4-yl)-2-oxo-1,2,3,5-tetrahydro-4H-benzo[e][1,4]diazepine-4-carboxamide]",0.36 µM
5,"CC[C@H](C)[C@H]1C(=O)Nc2ccccc2CN1C(=O)N1CCC[C@@H](CO)C1 [Compound 302, (S)-3-((S)-sec-butyl)-4-((R)-3-(hydroxymethyl)piperidine-1-carbonyl)-1,3,4,5-tetrahydro-2H-benzo[e][1,4]diazepin-2-one]",0.82 µM
6,"CC[C@H](C)[C@H]1C(=O)Nc2ccccc2CN1C(=O)N1CCC[C@H](CO)C1 [Compound 303, (S)-3-((S)-sec-butyl)--4-((S)-3-(hydroxymethyl)piperidine-1-carbonyl)-1,3,4,5-tetrahydro-2H-benzo[e][1,4]diazepin-2-one]",0.89 µM
7,"CC[C@H](C)[C@H]1C(=O)Nc2ccccc2CN1C(=O)N1CCCC(C(N)=O)C1 (stereo partly drawn) [Compound 304, 1-((S)-3-((S)-sec-butyl)-2-oxo-2,3,4,5-tetrahydro-1H-benzo[e][1,4]diazepine-4-carbonyl)piperidine-3-carboxamide]",2.27 µM
8,"CC[C@H](C)[C@H]1C(=O)Nc2ccccc2CN1C(=O)N1CCCC(C(N)=O)C1 (stereo partly drawn) [Compound 305, 1-((S)-3-((S)-sec-butyl)-2-oxo-2,3,4,5-tetrahydro-1H-benzo[e][1,4]diazepine-4-carbonyl)piperidine-3-carboxamide]",1.42 µM
9,"CC[C@H](C)[C@H]1C(=O)Nc2ccccc2CN1C(=O)N1CC(F)C1 [Compound 306, (S)-3-((S)-sec-butyl)-4-(3-fluoroazetidine-1-carbonyl)-1,3,4,5-tetrahydro-2H-benzo[e][1,4]diazepin-2-one]",0.11 µM
10,"CC[C@H](C)[C@H]1C(=O)Nc2ccccc2CN1C(=O)N[C@@H]1CCNC1 [Compound 307, (S)-3-((S)-sec-butyl)-2-oxo-N-((R)-pyrrolidin-3-yl)-1,2,3,5-tetrahydro-4H-benzo[e][1,4]diazepine-4-carboxamide]",0.52 µM
11,"CC[C@H](C)[C@H]1C(=O)Nc2ccccc2CN1C(=O)N[C@H]1CCNC1 [Compound 308, (S)-3-((S)-sec-butyl)-2-oxo-N-((S)-pyrrolidin-3-yl)-1,2,3,5-tetrahydro-4H-benzo[e][1,4]diazepine-4-carboxamide]",0.32 µM
12,"COCCN1Cc2ccccc2NC(=O)[C@@H]1C1CCCCCC1 [Compound 309, (S)-3-cycloheptyl-4-(2-methoxyethyl)-1,3,4,5-tetrahydro-2H-benzo[e][1,4]diazepin-2-one]",0.59 µM
13,"CC[C@H](C)[C@H]1C(=O)Nc2ccccc2CN1CCOC [Compound 310, (S)-3-((S)-sec-butyl)-4-(2-methoxyethyl)-1,3,4,5-tetrahydro-2H-benzo[e][1,4]diazepin-2-one]",4.17 µM
14,"CC[C@H](C)[C@H]1C(=O)Nc2ccccc2CN1CC(=O)NC [Compound 311, 2-((S)-3-((S)-sec-butyl)-2-oxo-1,2,3,4-tetrahydro-4H-benzo[e][1,4]diazepin-4-yl)-N-methylacetamide]",2.60 µM
15,"CC[C@H](C)[C@H]1C(=O)Nc2ccccc2CN1CCC(N)=O [Compound 312, 3-((S)-3-((S)-sec-butyl)-2-oxo-1,2,3,5-tetrahydro-4H-benzo[e][1,4]diazepin-4-yl)propanamide]",1.22 µM
16,"CC[C@H](C)[C@H]1C(=O)Nc2ccccc2CN1CCC(=O)N(C)C [Compound 313, 3-((S)-3-((S)-sec-butyl)-2-oxo-1,2,3,5-tetrahydro-4H-benzo[e][1,4]diazepin-4-yl)-N,N-dimethylpropanamide]",1.22 µM
17,"CC[C@H](C)[C@H]1C(=O)Nc2ccccc2CN1CCC(=O)NC [Compound 314, 3-((S)-3-((S)-sec-butyl)-2-oxo-1,2,3,5-tetrahydro-4H-benzo[e][1,4]diazepin-4-yl)-N-methylpropanamide]",0.72 µM
18,"CC[C@H](C)[C@H]1C(=O)Nc2ccccc2CN1CC1CCCC1 [Compound 315, (S)-3-((S)-sec-butyl)-4-(cyclopentylmethyl)-1,3,4,5-tetrahydro-2H-benzo[e][1,4]diazepin-2-one]",0.65 µM

row,Structure (SMILES),AC1.4
1,"CC[C@H](C)[C@H]1C(=O)Nc2ccccc2CN1CC#N [Compound 316, 2-((S)-3-((S)-sec-butyl)-2-oxo-1,2,3,5-tetrahydro-4H-benzo[e][1,4]diazepin-4-yl)acetonitrile]",1.07 µM
2,"CC[C@H](C)[C@H]1C(=O)Nc2ccccc2C(CO)N1C(N)=O (stereo partly drawn) [Compound 317, (3S)-3-((S)-sec-butyl)-5-(hydroxymethyl)-2-oxo-1,2,3,5-tetrahydro-4H-benzo[e][1,4]diazepine-4-carboxamide]",1.30 µM
3,"CC[C@H](C)[C@H]1C(=O)Nc2ccccc2C2COC(=O)N21 (stereo partly drawn) [Compound 318, (5S)-5-((S)-sec-Butyl)-7,11b-dihydro-1H,3H-benzo[f]oxazolo[3,4-d][1,4]diazepine-3,6(5H)-dione]",0.19 µM
4,"CC[C@H](C)[C@H]1C(=O)Nc2ccccc2[C@@H](C)N1C(=O)c1cnn(C)c1 [Compound 319, (3S,5R)-3-((S)-sec-butyl)-5-methyl-4-(1-methyl-1H-pyrazole-4-carbonyl)-1,3,4,5-tetrahydro-2H-benzo[e][1,4]diazepin-2-one]",0.80 µM
5,"CC[C@H](C)[C@H]1C(=O)Nc2ccccc2[C@@H](C)N1C(N)=O [Compound 320, (3S,5R)-3-((S)-sec-butyl)-5-methyl-2-oxo-1,2,3,5-tetrahydro-4H-benzo[e][1,4]diazepine-4-carboxamide]",1.25 µM
6,"CC(C)[C@H]1C(=O)Nc2ccccc2CN1C(=O)c1ccn(C)n1 [Compound 322, (S)-3-isopropyl-4-(1-methyl-1H-pyrazole-3-carbonyl)-1,3,4,5-tetrahydro-2H-benzo[e][1,4]diazepin-2-one]",1.15 µM
7,"CC(C)[C@H]1C(=O)Nc2ccccc2CN1c1nccs1 [Compound 323, (S)-3-isopropyl-4-(thiazol-2-yl)-1,3,4,5-tetrahydro-2H-benzo[e][1,4]diazepin-2-one]",0.66 µM
8,"Cc1nsc(N2Cc3ccccc3NC(=O)[C@@H]2C(C)C)n1 [Compound 324, (S)-3-isopropyl-4-(3-methyl-1,2,4-thiadiazol-5-yl)-1,3,4,5-tetrahydro-2H-benzo[e][1,4]diazepin-2-one]",1.16 µM
9,"CC(C)[C@H]1C(=O)Nc2ccccc2CN1C(=O)N(C)C [Compound 325, (S)-3-isopropyl-N,N-dimethyl-2-oxo-1,2,3,5-tetrahydro-4H-benzo[e][1,4]diazepine-4-carboxamide]",1.81 µM
10,"CC(=O)N1Cc2ccccc2NC(=O)[C@@H]1C(C)C [Compound 326, (S)-4-acetyl-3-isopropyl-1,3,4,5-tetrahydro-2H-benzo[e][1,4]diazepin-2-one]",4.38 µM
11,"CC(C)[C@H]1C(=O)Nc2ccccc2CN1C(=O)c1cc[nH]c(=O)c1 [Compound 327, (S)-3-isopropyl-4-(2-oxo-1,2-dihydropyridine-4-carbonyl)-1,3,4,5-tetrahydro-2H-benzo[e][1,4]diazepin-2-one]",1.50 µM
12,"CC(C)[C@H]1C(=O)Nc2ccccc2CN1C(=O)c1cnn(CCO)c1 [Compound 328, (S)-4-(1-(2-hydroxyethyl)-1H-pyrazole-4-carbonyl)-3-isopropyl-1,3,4,5-tetrahydro-2H-benzo[e][1,4]diazepin-2-one]",2.56 µM
13,"CC(C)[C@H]1C(=O)Nc2ccccc2CN1C(=O)c1ccc(C(N)=O)[nH]1 [Compound 329, (S)-5-(3-isopropyl-2-oxo-2,3,4,5-tetrahydro-1H-benzo[e][1,4]diazepine-4-carbonyl)-1H-pyrrole-2-carboxamide]",0.20 µM
14,"COCCn1cc(C(=O)N2Cc3ccccc3NC(=O)[C@@H]2C(C)C)cn1 [Compound 330, (S)-3-isopropyl-4-(1-(2-methoxyethyl)-1H-pyrazole-4-carbonyl)-1,3,4,5-tetrahydro-2H-benzo[e][1,4]diazepin-2-one]",1.71 µM
15,"CC(C)[C@H]1C(=O)Nc2ccccc2CN1C(=O)c1cn[nH]c1 [Compound 331, (S)-3-isopropyl-4-(1H-pyrazole-4-carbonyl)-1,3,4,5-tetrahydro-2H-benzo[e][1,4]diazepin-2-one]",1.03 µM
16,"CC(C)[C@H]1C(=O)Nc2ccccc2CN1C(=O)N1CC(O)C1 [Compound 332, (S)-4-(3-hydroxyazetidine-1-carbonyl)-3-isopropyl-1,3,4,5-tetrahydro-2H-benzo[e][1,4]diazepin-2-one]",2.37 µM
17,"CC(C)[C@H]1C(=O)Nc2ccccc2CN1S(=O)(=O)N(C)C [Compound 333, (S)-3-isopropyl-N,N-dimethyl-2-oxo-1,2,3,5-tetrahydro-4H-benzo[e][1,4]diazepine-4-sulfonamide]",2.44 µM
18,"CC(C)[C@H]1C(=O)Nc2ccccc2CN1c1c(N)c(=O)c1=O [Compound 334, (S)-3-amino-4-(3-isopropyl-2-oxo-1,2,3,5-tetrahydro-4H-benzo[e][1,4]diazepin-4-yl)cyclobut-3-ene-1,2-dione]",0.65 µM
